Drawing on patent publication US7608633B2, “Heteroaryl-substituted acetone derivatives as inhibitors of phospholipase A2” (Merckle GmbH, priority 2003, dated 2009), this text covers melting point and inhibition for 22 compounds.

For data set [1], the target named is T1, cytosolic phospholipase A2 (Homo sapiens, UniProt P47712).
T1 construct: endogenous in cells; host or cells: intact human platelets (thrombocytes)
T1 sequence (P47712 1-749): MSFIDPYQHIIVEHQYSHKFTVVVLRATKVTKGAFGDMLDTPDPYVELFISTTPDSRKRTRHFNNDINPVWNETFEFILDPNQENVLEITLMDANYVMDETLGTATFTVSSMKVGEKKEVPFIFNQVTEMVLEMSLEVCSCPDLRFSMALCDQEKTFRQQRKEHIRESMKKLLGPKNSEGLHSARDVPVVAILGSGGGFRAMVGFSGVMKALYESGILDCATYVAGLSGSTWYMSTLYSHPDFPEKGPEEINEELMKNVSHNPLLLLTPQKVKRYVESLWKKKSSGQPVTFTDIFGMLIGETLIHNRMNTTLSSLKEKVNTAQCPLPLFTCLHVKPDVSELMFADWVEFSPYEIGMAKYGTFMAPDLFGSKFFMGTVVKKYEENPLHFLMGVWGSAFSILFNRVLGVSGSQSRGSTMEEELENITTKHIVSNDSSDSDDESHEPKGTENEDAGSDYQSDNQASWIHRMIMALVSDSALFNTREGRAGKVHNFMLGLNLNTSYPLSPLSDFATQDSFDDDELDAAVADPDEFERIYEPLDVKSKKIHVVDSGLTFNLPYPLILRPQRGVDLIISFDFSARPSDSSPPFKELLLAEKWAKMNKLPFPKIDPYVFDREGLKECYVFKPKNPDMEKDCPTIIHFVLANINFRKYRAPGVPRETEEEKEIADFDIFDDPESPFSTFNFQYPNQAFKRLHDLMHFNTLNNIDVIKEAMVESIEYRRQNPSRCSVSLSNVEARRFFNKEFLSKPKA
Briefly: Inhibition of cytosolic phospholipase A2 in intact human platelets stimulated with calcium ionophor A23187 (arachidonic acid release, HPLC). The note with it: concentration of 10 μM, calcium ionophor A23187 stimulation, one collective range for the six compounds, read-out: inhibited the activity of cytosolic phospholipase A2. Type of data set: cell-based. The text has this:
The effectiveness of the compounds according to the invention can be determined by the inhibition of cytosolic phospholipase A2. To this end, cytosolic phospholipase A2 is stimulated in intact human thrombocytes with calcium ionophor A23187 so as to trigger the release of arachidonic acid from the membrane phospholipids. In order to prevent the metabolization of the enzyme product arachidonic acid via the cyclooxygenase route and the 12-lipoxygenase route, the dual cyclooxygenase/12-lipoxygenase-inhibitor 5,8,11,14-eicosatetraynoic acid is added. Following purification by means of solid phase extraction, the released arachidonic acid is determined by reversed phase-HPLC using U.V. detection. The inhibition of the enzyme by a test substance follows from the ratio of the arachidonic acid amounts formed in the presence or absence of the test substance. More detailed information on the test system is made in Example 10.
The effectiveness of the compounds according to the invention can be determined by the inhibition of cytosolic phospholipase A2. The test method used was described earlier (Lehr M. et al., Arch. Pharm. Pharm. Med. Chem. 2000, 333, 312-314). Here, the arachidonic acid formed by cytosolic phospholipase A2 in intact human platelets following stimulation using calcium ionophor A23187 is detected in the presence and absence of test substances.

`CCCCCCCCc1ccc(OCC(=O)Cn2ccc3cc(Cl)ccc32)cc1` [Example 13, 1-(5-Chloroindol-1-yl)-3-(4-octylphenoxy)propan-2-one] showed a melting point of 77 °C.

On to `CCCCCCCCc1ccc(OCC(=O)Cn2ncc3ccccc32)cc1`, for which the melting point lay within 66 to 67 °C.

In the case of `CCCCCCCn1ccc2cc(OCC(=O)Cn3ccc4cc(C(N)=O)ccc43)ccc21` [Example 30, 1-[3-(1-Heptylindol-5-yloxy)-2-oxopropyl]indole-5-carbamide], the melting point is 171 °C.

`CCCCCCCCc1ccc(OCC(=O)Cn2cc(C(=O)O)c3ccccc32)cc1` [Example 8, 1-[3-(4-Octylphenoxy)-2-oxopropyl]indole-3-carboxylic acid] registered a melting point of 182 to 183 °C. In data set [1], the inhibition at 10 µM lay in the range of 40 to 95%.

For the compound `CCCCCCCCc1ccc(OCC(=O)Cn2cc(C=O)c3cc(C(=O)O)ccc32)cc1`, the melting point was 193 °C.

`CCCCCCCCc1ccc(OCC(=O)Cn2ccc3cc(C=O)ccc32)cc1` [Example 16, 1-[3-(4-Octylphenoxy)-2-oxopropyl]indole-5-carbaldehyde] displayed a melting point of 96 °C.

Compound `CCCCCCCCc1ccc(OCC(=O)Cn2ccc3cc(C#N)ccc32)cc1` [Example 15, 1-(3-(4-Octylphenoxy)-2-oxopropyl]indole-5-carbonitrile] yielded a melting point of 96 °C.

`CCCCCCCCc1ccc(OCC(=O)Cn2ccc3cc(C(=O)OC)ccc32)cc1` [Example 17, Methyl-1-(3-(4-octylphenoxy)-2-oxopropyl]indole-5-carboxylate] showed a melting point of 118 °C.

`CCCCCCCCc1ccc(OCC(=O)Cn2cc(C(=O)OC)c3cc(C(=O)O)ccc32)cc1` came in with a melting point of 208 °C.

`CCCCCCCCc1ccc(OCC(=O)Cn2cc(C(C)=O)c3cc(C(=O)O)ccc32)cc1` returned a melting point of 197 °C.

As to `CCCCCCCCc1ccc(OCC(=O)Cn2cccn2)cc1` [Example 2, 1-(4-Octylphenoxy)-3-(pyrazol-1-yl)propan-2-one], the inhibition at 10 µM in data set [1] fell in the range of 40 to 95%.

For the compound `CCCCCCCCc1ccc(OCC(=O)Cn2c(C(=O)O)cc3ccccc32)cc1` [Example 7, 1-[3-(4-Octylphenoxy)-2-oxopropyl]indole-2-carboxylic acid], the melting point was 173 °C. For the same compound, the inhibition at 10 µM in data set [1] was 40 to 95%.

For `CCCCCCCCc1ccc(OCC(=O)Cn2cc(C(C)(C)C)c3ccc(C(=O)O)cc32)cc1` [Example 23, 3-tert-Butyl-1-[3-(4-octylphenoxy)-2-oxopropyl]indole-6-carboxylic acid], the melting point was in the range of 145 to 146 °C.

`CCCCCCCCc1ccc(OCC(=O)Cn2cc(C(C)(C)C)c3cc(C(=O)O)ccc32)cc1` [Example 18, 3-tert-Butyl-1-[3-(4-octylphenoxy)-2-oxopropyl]indole-5-carboxylic acid] had a melting point of 146 to 147 °C.

Consider `CCCCCCCCc1ccc(OCC(=O)Cn2ccc3cc(OC)ccc32)cc1` [Example 14, 1-(5-Methoxyindol-1-yl)-3-(4-octylphenoxy)propan-2-one], for which the melting point amounted to 85 °C.

Compound `CCCCCCCCc1ccc(OCC(=O)Cn2cccc2)cc1` came in with a melting point of 58 to 59 °C.

Take `CCCCCCCCc1ccc(OCC(=O)Cn2cccc2C(=O)O)cc1` [Example 5, 1-[3-(4-Octylphenoxy)-2-oxopropyl]pyrrol-2-carboxylic acid]: the melting point is 157 °C (dec.). Further, the inhibition at 10 µM in data set [1] was 40 to 95%.

On to `CCCCCCCOc1ccc(OCC(=O)Cn2ccc3cc(C(N)=O)ccc32)cc1` [Example 26, 1-[3-(4-Heptyloxyphenoxy)-2-oxopropyl]indole-5-carbamide], for which the melting point was 114 °C.

For `CCCCCCCCc1ccc(OCC(=O)Cn2ccc3ccccc32)cc1`, the melting point was determined as 65 °C.

The compound `CCCCCCCCc1ccc(OCC(=O)Cn2cc(Cl)c3cc(C(=O)O)ccc32)cc1` [Example 19, 3-Chloro-1-[3-(4-octylphenoxy)-2-oxopropyl]indole-5-carboxylic acid] gave a melting point of 157 °C.

`CCCCCCCCc1ccc(OCC(=O)Cn2ccc3cc(C(=O)O)ccc32)cc1` [Example 9, 1-[3-(4-Octylphenoxy)-2-oxopropyl]indole-5-carboxylic acid]: the inhibition at 10 µM in data set [1] was in the range of 40 to 95%.

As for `CCCCCCCCc1ccc(OCC(=O)Cn2ccc(C(=O)O)c2)cc1` [Example 6, 1-[3-(4-Octylphenoxy)-2-oxopropyl]pyrrole-3-carboxylic acid], in data set [1], the inhibition at 10 µM lay in the range of 40 to 95%.
